Test results taken from ChEMBL document CHEMBL4371033, “Highly Potent and Selective Plasmin Inhibitors Based on the Sunflower Trypsin Inhibitor-1 Scaffold Attenuate Fibrinolysis in Plasma” (J Med Chem, 2019).
Residues, ends and D or L forms follow the SMILES beside them.

Target: Plasminogen (Homo sapiens, UniProt P00747)
Test: Inhibition of human plasmin using Ac-RM(O2)YR-pNA as substrate after 30 mins

Plasminogen, sequence (P00747 97-580 limits assumed): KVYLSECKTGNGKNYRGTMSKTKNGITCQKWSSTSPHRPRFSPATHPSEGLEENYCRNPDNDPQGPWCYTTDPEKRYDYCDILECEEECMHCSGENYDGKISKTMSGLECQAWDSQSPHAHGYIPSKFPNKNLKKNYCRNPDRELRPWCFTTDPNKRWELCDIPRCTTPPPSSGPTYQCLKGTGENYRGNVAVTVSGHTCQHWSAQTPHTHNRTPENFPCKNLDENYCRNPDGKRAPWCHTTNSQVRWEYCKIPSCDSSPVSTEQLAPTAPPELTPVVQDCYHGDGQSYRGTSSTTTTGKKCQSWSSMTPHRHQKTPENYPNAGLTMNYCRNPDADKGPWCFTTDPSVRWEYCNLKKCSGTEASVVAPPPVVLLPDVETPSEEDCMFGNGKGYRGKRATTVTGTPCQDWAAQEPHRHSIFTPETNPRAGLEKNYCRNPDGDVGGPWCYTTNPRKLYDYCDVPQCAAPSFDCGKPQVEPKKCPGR
Plasminogen, sequence (P00747 581-810 limits assumed): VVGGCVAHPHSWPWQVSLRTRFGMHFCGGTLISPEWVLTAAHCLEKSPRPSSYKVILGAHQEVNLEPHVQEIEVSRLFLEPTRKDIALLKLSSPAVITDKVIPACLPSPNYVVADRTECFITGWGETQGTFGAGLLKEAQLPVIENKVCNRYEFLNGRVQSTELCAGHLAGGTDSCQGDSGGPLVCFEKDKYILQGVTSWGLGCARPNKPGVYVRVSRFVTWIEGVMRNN

Compound	Ki [nM]
CC[C@H](C)[C@@H]1NC(=O)[C@@H]2CCCN2C(=O)[C@@H]2CCCN2C(=O)[C@H](CCCCN)NC(=O)[C@H](CO)NC(=O)[C@H](CCCCN)NC(=O)[C@H](Cc2ccccc2)NC(=O)[C@@H]2CSSC[C@H](NC1=O)C(=O)N[C@@H](Cc1ccccc1)C(=O)N1CCC[C@H]1C(=O)N[C@@H](CC(=O)O)C(=O)NCC(=O)N[C@@H](CCCNC(=N)N)C(=O)N2 (HELM PEPTIDE1{C.F.K.S.K.P.P.I.C.F.P.D.G.R}$PEPTIDE1,PEPTIDE1,1:R3-9:R3|PEPTIDE1,PEPTIDE1,1:R1-14:R2$$$V2.0)	0.61
CC[C@H](C)[C@@H]1NC(=O)[C@@H]2CCCN2C(=O)[C@@H]2CCCN2C(=O)[C@H](CCCNC(=N)N)NC(=O)[C@H](CO)NC(=O)[C@H](CCCCN)NC(=O)[C@H]([C@@H](C)O)NC(=O)[C@@H]2CSSC[C@H](NC1=O)C(=O)N[C@@H](Cc1ccccc1)C(=O)N1CCC[C@H]1C(=O)N[C@@H](CC(=O)O)C(=O)NCC(=O)N[C@@H](CCCNC(=N)N)C(=O)N2 (HELM PEPTIDE1{C.F.P.D.G.R.C.T.K.S.R.P.P.I}$PEPTIDE1,PEPTIDE1,1:R3-7:R3|PEPTIDE1,PEPTIDE1,1:R1-14:R2$$$V2.0)	2
CC[C@H](C)[C@@H]1NC(=O)[C@@H]2CCCN2C(=O)[C@@H]2CCCN2C(=O)[C@H]([C@@H](C)CC)NC(=O)[C@H](CO)NC(=O)[C@H](CCCNC(=N)N)NC(=O)[C@H]([C@@H](C)O)NC(=O)[C@@H]2CSSC[C@H](NC1=O)C(=O)N[C@@H](Cc1ccccc1)C(=O)N1CCC[C@H]1C(=O)N[C@@H](CC(=O)O)C(=O)NCC(=O)N[C@@H](CCCNC(=N)N)C(=O)N2 (HELM PEPTIDE1{C.F.P.D.G.R.C.T.R.S.I.P.P.I}$PEPTIDE1,PEPTIDE1,1:R3-7:R3|PEPTIDE1,PEPTIDE1,1:R1-14:R2$$$V2.0)	120
CC[C@H](C)[C@@H]1NC(=O)[C@@H]2CCCN2C(=O)[C@@H]2CCCN2C(=O)[C@H](CCCCN)NC(=O)[C@H](CO)NC(=O)[C@H](CCCCN)NC(=O)[C@H](Cc2c[nH]c3ccccc23)NC(=O)[C@@H]2CSSC[C@H](NC1=O)C(=O)N[C@@H](Cc1ccccc1)C(=O)N1CCC[C@H]1C(=O)N[C@@H](CC(=O)O)C(=O)NCC(=O)N[C@@H](CCCNC(=N)N)C(=O)N2 (HELM PEPTIDE1{C.F.P.D.G.R.C.W.K.S.K.P.P.I}$PEPTIDE1,PEPTIDE1,1:R3-7:R3|PEPTIDE1,PEPTIDE1,1:R1-14:R2$$$V2.0)	0.66
N=C(N)NCCC[C@@H]1NC(=O)CNC(=O)[C@H](CC(=O)O)NC(=O)[C@@H]2CCCN2C(=O)[C@H](Cc2ccccc2)NC(=O)[C@@H]2CSSC[C@H](NC1=O)C(=O)N[C@@H](Cc1ccc(O)cc1)C(=O)N[C@@H](CCCCN)C(=O)N[C@@H](CO)C(=O)N[C@@H](CCCCN)C(=O)N1CCC[C@H]1C(=O)N1CCC[C@H]1C(=O)N[C@@H](CCCCN)C(=O)N2 (HELM PEPTIDE1{C.F.P.D.G.R.C.Y.K.S.K.P.P.K}$PEPTIDE1,PEPTIDE1,1:R3-7:R3|PEPTIDE1,PEPTIDE1,1:R1-14:R2$$$V2.0)	2.5
N=C(N)NCCC[C@@H]1NC(=O)CNC(=O)[C@H](CC(=O)O)NC(=O)[C@@H]2CCCN2C(=O)[C@H](Cc2ccccc2)NC(=O)[C@@H]2CSSC[C@H](NC1=O)C(=O)N[C@@H](Cc1ccc(O)cc1)C(=O)N[C@@H](CCCCN)C(=O)N[C@@H](CO)C(=O)N[C@@H](CCCCN)C(=O)N1CCC[C@H]1C(=O)N1CCC[C@H]1C(=O)N[C@@H](CC(N)=O)C(=O)N2 (HELM PEPTIDE1{C.F.P.D.G.R.C.Y.K.S.K.P.P.N}$PEPTIDE1,PEPTIDE1,1:R3-7:R3|PEPTIDE1,PEPTIDE1,1:R1-14:R2$$$V2.0)	0.66
N=C(N)NCCC[C@@H]1NC(=O)CNC(=O)[C@H](CC(=O)O)NC(=O)[C@@H]2CCCN2C(=O)[C@H](Cc2ccccc2)NC(=O)[C@@H]2CSSC[C@H](NC1=O)C(=O)N[C@@H](Cc1ccc(O)cc1)C(=O)N[C@@H](CCCCN)C(=O)N[C@@H](CO)C(=O)N[C@@H](CCCCN)C(=O)N1CCC[C@H]1C(=O)N1CCC[C@H]1C(=O)N[C@@H](CCC(N)=O)C(=O)N2 (HELM PEPTIDE1{C.F.P.D.G.R.C.Y.K.S.K.P.P.Q}$PEPTIDE1,PEPTIDE1,1:R3-7:R3|PEPTIDE1,PEPTIDE1,1:R1-14:R2$$$V2.0)	1.8
N=C(N)NCCC[C@@H]1NC(=O)CNC(=O)[C@H](CC(=O)O)NC(=O)[C@@H]2CCCN2C(=O)[C@H](Cc2ccccc2)NC(=O)[C@@H]2CSSC[C@H](NC1=O)C(=O)N[C@@H](Cc1ccc(O)cc1)C(=O)N[C@@H](CCCCN)C(=O)N[C@@H](CO)C(=O)N[C@@H](CCCCN)C(=O)N1CCC[C@H]1C(=O)N1CCC[C@H]1C(=O)N[C@@H](CCCNC(=N)N)C(=O)N2 (HELM PEPTIDE1{C.F.P.D.G.R.C.Y.K.S.K.P.P.R}$PEPTIDE1,PEPTIDE1,1:R3-7:R3|PEPTIDE1,PEPTIDE1,1:R1-14:R2$$$V2.0)	4.7
CC[C@H](C)[C@@H]1NC(=O)[C@@H]2CCCN2C(=O)[C@@H]2CCCN2C(=O)[C@H](CCCCN)NC(=O)[C@H](CO)NC(=O)[C@H](CCCNC(=N)N)NC(=O)[C@H](Cc2ccc(O)cc2)NC(=O)[C@@H]2CSSC[C@H](NC1=O)C(=O)N[C@@H](Cc1ccccc1)C(=O)N1CCC[C@H]1C(=O)N[C@@H](CC(=O)O)C(=O)NCC(=O)N[C@@H](CCCNC(=N)N)C(=O)N2 (HELM PEPTIDE1{C.F.P.D.G.R.C.Y.R.S.K.P.P.I}$PEPTIDE1,PEPTIDE1,1:R3-7:R3|PEPTIDE1,PEPTIDE1,1:R1-14:R2$$$V2.0)	8.3
CC[C@H](C)[C@@H]1NC(=O)[C@@H]2CCCN2C(=O)[C@@H]2CCCN2C(=O)[C@H](CCCNC(=N)N)NC(=O)[C@H](CO)NC(=O)[C@H](CCCNC(=N)N)NC(=O)[C@H](Cc2ccc(O)cc2)NC(=O)[C@@H]2CSSC[C@H](NC1=O)C(=O)N[C@@H](Cc1ccccc1)C(=O)N1CCC[C@H]1C(=O)N[C@@H](CC(=O)O)C(=O)NCC(=O)N[C@@H](CCCNC(=N)N)C(=O)N2 (HELM PEPTIDE1{C.F.P.D.G.R.C.Y.R.S.R.P.P.I}$PEPTIDE1,PEPTIDE1,1:R3-7:R3|PEPTIDE1,PEPTIDE1,1:R1-14:R2$$$V2.0)	16
CC[C@H](C)[C@@H]1NC(=O)[C@@H]2CCCN2C(=O)[C@@H]2CCCN2C(=O)[C@H](CCCNC(=N)N)NC(=O)[C@H](CO)NC(=O)[C@H](CCCCN)NC(=O)[C@H](Cc2ccc(O)cc2)NC(=O)[C@@H]2CSSC[C@H](NC1=O)C(=O)N[C@@H](Cc1ccccc1)C(=O)N1CCC[C@H]1C(=O)N[C@@H](CCC(=O)O)C(=O)NCC(=O)NC(CCCCNC(=N)N)C(=O)N2 (some centres not stated) (HELM PEPTIDE1{C.F.P.E.G.[N=C(N)NCCCCC(N[*:1])C(=O)[*:2]].C.Y.K.S.R.P.P.I}$PEPTIDE1,PEPTIDE1,1:R3-7:R3|PEPTIDE1,PEPTIDE1,1:R1-14:R2$$$V2.0)	1.1
CC[C@H](C)[C@@H]1NC(=O)[C@@H]2CCCN2C(=O)[C@@H]2CCCN2C(=O)[C@H](CCCNC(=N)N)NC(=O)[C@H](CO)NC(=O)[C@H](CCCCN)NC(=O)[C@H](Cc2ccc(O)cc2)NC(=O)[C@@H]2CSSC[C@H](NC1=O)C(=O)N[C@@H](Cc1ccccc1)C(=O)N1CCC[C@H]1C(=O)N[C@@H](CC(N)=O)C(=O)NCC(=O)N[C@@H](CCCNC(=N)N)C(=O)N2 (HELM PEPTIDE1{C.F.P.N.G.R.C.Y.K.S.R.P.P.I}$PEPTIDE1,PEPTIDE1,1:R3-7:R3|PEPTIDE1,PEPTIDE1,1:R1-14:R2$$$V2.0)	1.2
